What is called MIC is the lowest concentration found to suppress growth.

Converted amounts (≈) assume the structure as drawn.

This is an account of results in US20260308172A1, “TRICYCLIC COMPOUNDS FOR TREATMENT OF BACTERIAL INFECTIONS” (priority 2023, published 2026).

Data set [1] is described as follows: Human Microsome Stability Assay. As to conditions: 1 μM compound, 0.5 mg/mL liver microsomal protein, 1 mM NADPH, pH 7.4, 37° C., 0-30 minutes; for CLint scaled at 1 µM: human, liver microsomes, read-out: Clearance of Human microsome. The format is in vitro ADME. How it is done:
The human microsomal stability assay is used for early assessment of metabolic stability of compounds of present invention in human liver microsomes. Human liver microsomes (Cat. NO.: 452117, Corning, USA) were pre-incubated with test compound for 10 minutes at 37° C. in 100 mM potassium phosphate buffer, pH 7.4. The reactions were initiated by adding NADPH regenerating system. The final incubation mixtures contained 1 μM compound, 0.5 mg/mL liver microsomal protein, 1 mM MgCl2 and 1 mM NADPH in 100 mM potassium phosphate buffer, pH 7.4. After incubation times of 0, 3, 6, 9, 15 and 30 minutes at 37° C., 300 μL of cold acetonitrile (including internal standard) was added to 100 μL incubation mixture to terminate the reaction. Following precipitation and centrifugation, the amount of compound remaining in the samples were determined by LC-MS/MS. Controls of no NADPH regenerating system at zero and 30 minutes were also prepared and analyzed.
A general note: Liver microsomes are vesicles of endoplasmic reticulum, rich in cytochrome P450 enzymes.

Data set [2] deals with Klebsiella pneumonia ATCC 43816. As to the kind of experiment: Minimal Inhibitory Concentration (MIC) assay, Klebsiella pneumonia ATCC 43816. Format: cell-based. As to conditions: Klebsiella pneumoniae, ATCC43816, 20 h, read-out: MIC Klebsiella pneumoniae ATCC43816. How it is done:
(§1) The antibacterial activity of the compounds of the present invention was evaluated against the commonly used quality control strain Escherichia coli ATCC 25922 and the rifampin-resistant mutant strain Klebsiella pneumonia ATCC 43816. Both were originally derived from human clinical samples and are available from ATCC (American Type Culture Collection). The in vitro potency of compounds to inhibit Escherichia coli (ATCC 25922) and Klebsiella pneumonia (ATCC 43816) growth was assessed by the MIC (Minimal Inhibitory Concentration) broth dilution method. Specifically compound dilutions were prepared from 10 mM DMSO stock solutions as follows: i) serial 2-fold dilution in 20 μL DMSO were prepared in a master plate (Greiner, Cat No: 651201), ii) 180 μL sterile distilled water was added to each aliquot and iii) 10 μL diluted compounds were transferred into a new assay plate (Costar, 3599).
(§2) Vials of each test microorganisms were maintained frozen in the vapor phase of a liquid nitrogen freezer. Single-use frozen vials of the two strains Escherichia coli ATCC 25922 (KWIKSTIK, 0335K) and Klebsiella pneumonia ATCC 43816, with predetermined CFU/mL, were taken out from the freezer, thawed at room temperature, and diluted in Cation-Adjusted Mueller Hinton Broth (CAMHB) to achieve a final inoculum of 5×10^5 CFU/mL. 90 μL bacteria containing broth was dispensed to the assay plate containing the pre-dispensed compound dilutions and mixed by pipetting 5 times.
(§3) Then the assay plates were incubated for 20 hours at 35° C. in ambient air. Following incubation, the MIC (μg/mL), the lowest concentration of drug that inhibits visible growth of the microorganism was read with the help of a magnification mirror and recorded.

The test system of data set [3] is Escherichia coli ATCC 25922. As to the kind of experiment: Minimal Inhibitory Concentration (MIC) assay, Escherichia coli ATCC 25922. Format: cell-based. Particulars: ATCC25922, 20 h, read-out: MIC Escherichia coli ATCC25922. How it is done: as §1, §2, §3

In the case of `Cc1cc(C(F)(F)F)nc(N2CCN(S(=O)(=O)c3ccc4c(c3)OC[C@H]3[C@H](CN)OC(=O)N43)CC2)n1` (relative stereo) [Example 002], in data set [1], the CLint scaled at 1 µM stood at 10 mL/min/kg. Also, the figures for the MIC in data set [2] and in data set [3] were 1.32 µg/mL (≈ 2.5 µM) and 0.66 µg/mL (≈ 1.25 µM), respectively.

Turning to `Cc1cc(C(F)(F)F)nc(N2CCN(S(=O)(=O)c3ccc4c(c3)OC[C@H]3[C@@H](CN)OC(=O)N43)CC2)n1` (relative stereo) [Example 006], the CLint scaled at 1 µM in data set [1] was 12.5 mL/min/kg. The figures for the MIC in data set [2] and in data set [3] were 0.88 µg/mL (≈ 1.67 µM) and 0.44 µg/mL (≈ 0.833 µM), respectively.

In the case of `NC[C@H]1OC(=O)N2c3ccc(S(=O)(=O)N4CCN(c5cc(C(F)(F)F)cc(Cl)n5)CC4)cc3OC[C@@H]12` (relative stereo) [Example 007], the CLint scaled at 1 µM in data set [1] was 9.6 mL/min/kg. In addition, the minimal inhibitory concentration (MIC) was 0.91 µg/mL (≈ 1.66 µM) in data set [2] and 0.46 µg/mL (≈ 0.84 µM) in data set [3].

Take `NC[C@H]1OC(=O)N2c3ccc(S(=O)(=O)N4CCN(c5cc(C(F)(F)C6CCCNC6)cc(Cl)n5)CC4)cc3OC[C@H]12` (relative stereo) [Example 009]: the “Clearance of Human microsome” value in data set [1] is given as 6.2 mL/min/kg. The MIC in data set [2] and in data set [3] was 0.66 µg/mL (≈ 1.08 µM) in each case.

Regarding `O=C1O[C@H](CO)[C@@H]2COc3cc(S(=O)(=O)N4CCN(c5cc(C(F)(F)C6CCCNC6)cc(Cl)n5)CC4)ccc3N12` (relative stereo) [Example 033], the CLint scaled at 1 µM in data set [1] was 13.6 mL/min/kg. Also, the minimal inhibitory concentration (MIC) in data set [2] came to 1.55 µg/mL (≈ 2.52 µM); in data set [3] it was 1 µg/mL (≈ 1.63 µM).

`NCCCNC(=O)[C@H]1CC[C@H](C(F)(F)c2cc(Cl)nc(N3CCN(S(=O)(=O)c4ccc5c(c4)OC[C@@H]4[C@H](CN)OC(=O)N54)CC3)c2)CC1` (stereo in doubt) [Example 047, 4-[[2-[4-[[cis-3-(aminomethyl)-1-oxo-3a,4-dihydro-3H-oxazolo[4,3-c][1,4]benzoxazin-7-yl]sulfonyl]piperazin-1-yl]-6-chloro-4-pyridyl]-difluoro-methyl]-N-(3-aminopropyl)cyclohexanecarboxamide]: the CLint scaled at 1 µM in data set [1] was 7 mL/min/kg. Further, the MIC is 0.59 µg/mL (≈ 0.828 µM) in data set [2] and 0.58 µg/mL (≈ 0.814 µM) in data set [3].

`NC[C@H]1OC(=O)N2c3ccc(S(=O)(=O)N4CCN(c5cc(C(F)(F)[C@H]6CNCCO6)cc(Cl)n5)CC4)cc3OC[C@H]12` [Example 024, (3R,3aR)-3-(aminomethyl)-7-[4-[6-chloro-4-[difluoro-[(2R)-morpholin-2-yl]methyl]-2-pyridyl]piperazin-1-yl]sulfonyl-3a,4-dihydro-3H-oxazolo[4,3-c][1,4]benzoxazin-1-one]: the results for the MIC in data set [2] and in data set [3] were 1.32 µg/mL (≈ 2.15 µM) and 0.66 µg/mL (≈ 1.07 µM), respectively.

In the case of `O=C1CCC2COc3cc(S(=O)(=O)N4CCN(c5cc(C(F)(F)[C@H]6CNCCO6)cc(Cl)n5)CC4)ccc3N12` (stereo partly drawn) [Example 030, 7-[4-[6-Chloro-4-[difluoro-[(2R)-morpholin-2-yl]methyl]-2-pyridyl]piperazin-1-yl]sulfonyl-2,3,3a,4-tetrahydropyrrolo[2,1-c][1,4]benzoxazin-1-one], the values for the MIC in data set [2] and in data set [3] were 0.492 µg/mL (≈ 0.842 µM) and 0.49 µg/mL (≈ 0.839 µM), respectively.

On to `NC1CC(=O)N2c3ccc(S(=O)(=O)N4CCN(c5cc(C(F)(F)[C@H]6CNCCO6)cc(Cl)n5)CC4)cc3OCC12` (stereo partly drawn) [Example 031, 3-Amino-7-[4-[6-chloro-4-[difluoro-[(2R)-morpholin-2-yl]methyl]-2-pyridyl]piperazin-1-yl]sulfonyl-2,3,3a,4-tetrahydropyrrolo[2,1-c][1,4]benzoxazin-1-one], for which the minimum inhibitory concentration (MIC) in data set [2] amounted to 1.01 µg/mL (≈ 1.68 µM); in data set [3], 0.25 µg/mL (≈ 0.417 µM).

`O=C1O[C@@H](CO)[C@H]2COc3cc(S(=O)(=O)N4CCN(c5cc(C(F)(F)C67CNCC6C7)cc(Cl)n5)CC4)ccc3N12` (stereo partly drawn) [Example 036, (3R,3aR)-7-[4-[4-[3-azabicyclo[3.1.0]hexan-1-yl(difluoro)methyl]-6-chloro-2-pyridyl]piperazin-1-yl]sulfonyl-3-(hydroxymethyl)-3a,4-dihydro-3H-oxazolo[4,3-c][1,4]benzoxazin-1-one]: the minimal inhibitory concentration (MIC) in data set [2] and in data set [3] was 0.14 µg/mL (≈ 0.229 µM) each time.

Take `CC1COC(C(F)(F)c2cc(Cl)nc(N3CCN(S(=O)(=O)c4ccc5c(c4)OC[C@H]4[C@H](CO)OC(=O)N54)CC3)c2)CN1` (stereo partly drawn) [Example 040, (3R,3aS)-7-[4-[6-chloro-4-[difluoro-(5-methylmorpholin-2-yl)methyl]-2-pyridyl]piperazin-1-yl]sulfonyl-3-(hydroxymethyl)-3a,4-dihydro-3H-oxazolo[4,3-c][1,4]benzoxazin-1-one]: the minimal inhibitory concentration (MIC) in data set [2] and in data set [3] was 0.29 µg/mL (≈ 0.46 µM) each time.

With `CC(N)C(=O)N1CC(C(F)(F)c2cc(Cl)nc(N3CCN(S(=O)(=O)c4ccc5c(c4)OC[C@@H]4[C@H](CO)OC(=O)N54)CC3)c2)C1` (stereo partly drawn) [Example 041, (3R,3aR)-7-[4-[4-[[1-(2-aminopropanoyl)azetidin-3-yl]-difluoro-methyl]-6-chloro-2-pyridyl]piperazin-1-yl]sulfonyl-3-(hydroxymethyl)-3a,4-dihydro-3H-oxazolo[4,3-c][1,4]benzoxazin-1-one], the MIC in data set [2] and in data set [3] was 2.4 µg/mL (≈ 3.65 µM) in each case.

Take `NC(=O)CN1CCC(C(F)(F)c2cc(Cl)nc(N3CCN(S(=O)(=O)c4ccc5c(c4)OC[C@@H]4[C@H](CO)OC(=O)N54)CC3)c2)CC1` [Example 056, 2-[4-[[2-[4-[[(3R,3aR)-3-(hydroxymethyl)-1-oxo-3a,4-dihydro-3H-oxazolo[4,3-c][1,4]benzoxazin-7-yl]sulfonyl]piperazin-1-yl]-6-chloro-4-pyridyl]-difluoro-methyl]-1-piperidyl]acetamide]: the MIC came to 0.23 µg/mL (≈ 0.343 µM) in data set [2] and 0.31 µg/mL (≈ 0.462 µM) in data set [3].

Take `C[N@@+]1(CC(N)=O)CCC[C@H]1C(=O)N[C@H]1CC[C@H](C(F)(F)c2cc(Cl)nc(N3CCN(S(=O)(=O)c4ccc5c(c4)OC[C@@H]4[C@H](CO)OC(=O)N54)CC3)c2)CC1` [Example 058, (1S,2S)—N-[4-[[2-[4-[[(3R,3aR)-3-(hydroxymethyl)-1-oxo-3a,4-dihydro-3H-oxazolo[4,3-c][1,4]benzoxazin-7-yl]sulfonyl]piperazin-1-yl]-6-chloro-4-pyridyl]-difluoro-methyl]cyclohexyl]-1-(2-amino-2-oxo-ethyl)-1-methyl-pyrrolidin-1-ium-2-carboxamide;chloride]: the minimum inhibitory concentration (MIC) in data set [2] came out at 1.32 µg/mL; in data set [3], 1.3 µg/mL.

As to `C[N@+]1(CC(N)=O)CCC[C@H]1C(=O)N[C@H]1CC[C@H](C(F)(F)c2cc(Cl)nc(N3CCN(S(=O)(=O)c4ccc5c(c4)OC[C@@H]4[C@H](CO)OC(=O)N54)CC3)c2)CC1` [Example 059, (1R,2S)—N-[4-[[2-[4-[[(3R,3aR)-3-(hydroxymethyl)-1-oxo-3a,4-dihydro-3H-oxazolo[4,3-c][1,4]benzoxazin-7-yl]sulfonyl]piperazin-1-yl]-6-chloro-4-pyridyl]-difluoro-methyl]cyclohexyl]-1-(2-amino-2-oxo-ethyl)-1-methyl-pyrrolidin-1-ium-2-carboxamide;chloride], the minimum inhibitory concentration (MIC) in data set [2] and in data set [3] was 0.66 µg/mL each time.

As for `NCC[N+]1(CCNC(=O)[C@H]2CC[C@H](C(F)(F)c3cc(Cl)nc(N4CCN(S(=O)(=O)c5ccc6c(c5)OC[C@H]5[C@H](CO)OC(=O)N65)CC4)c3)CC2)CCCC1.[Cl-]` [Example 064, 4-[[2-[4-[[(3R,3aS)-3-(hydroxymethyl)-1-oxo-3a,4-dihydro-3H-oxazolo[4,3-c][1,4]benzoxazin-7-yl]sulfonyl]piperazin-1-yl]-6-chloro-4-pyridyl]-difluoro-methyl]-N-[2-[1-(2-aminoethyl)pyrrolidin-1-ium-1-yl]ethyl]cyclohexanecarboxamide; chloride], the results for the minimum inhibitory concentration (MIC) in data set [2] and in data set [3] were 2.85 µg/mL and 2.8 µg/mL, respectively.
